In ChEMBL document CHEMBL1134873, “Synthesis and antiparasitic activity of 1H-benzimidazole derivatives” (Bioorg Med Chem Lett, 2002):

What was measured:
Entamoeba histolytica = experiment: The compound was tested in vitro against the protozoa Entamoeba histolytica, for the inhibition of tubulin polymerization in rat brain; type: functional
Giardia intestinalis = experiment: The compound was tested in vitro against the protozoa Giardia lamblia, for the inhibition of tubulin polymerization in rat brain; type: functional; settings: Giardia duodenalis
Trichinella spiralis [1] = experiment: Percentage viability reduction of Trichinella spiralis muscle larvae after 3 days of incubation; type: functional; parameters: concentration or dose not given beside the values
Trichinella spiralis [2] = experiment: Percentage viability reduction of Trichinella spiralis muscle larvae after 3 days of incubation; No reduction observed; type: functional, organism-based

Row | Compound | IC50 (Entamoeba histolytica) [nM] | IC50 (Giardia intestinalis) [nM] | Viability (Trichinella spiralis [1]) [%] | Viability (Trichinella spiralis [2])
1 | Clc1cc2nc[nH]c2cc1Cl | 96 | 358 | 18 | –
2 | CSc1nc2cc(Cl)c(Cl)cc2[nH]1 | 356 | 227 | 17 | –
3 | Sc1nc2cc(Cl)ccc2[nH]1 | 5 | 81 | 13 | –
4 | Cc1nc2cc(Cl)ccc2[nH]1 | 84 | 156 | 14 | –
5 | Nc1nc2ccc(Cl)cc2[nH]1 | 125 | 30 | 17 | –
6 | c1ccc2[nH]cnc2c1 [BENZIMIDAZOLE] | 42 | 8 | – | No reduction observed
7 | COC(=O)Nc1nc2ccccc2[nH]1 [CARBENDAZIM] | 204 | 57 | – | No reduction observed
8 | Clc1ccc2[nH]cnc2c1 | 39 | 282 | 27 | –
9 | CCCSc1ccc2[nH]c(NC(=O)OC)nc2c1 [ALBENDAZOLE] | – | – | 34 | –
10 | Sc1nc2cc(Cl)c(Cl)cc2[nH]1 | 55 | 78 | 23 | –
11 | COC(=O)Nc1nc2cc(Cl)ccc2[nH]1 | 350 | 66 | 19 | –
12 | Cc1nc2cc(Cl)c(Cl)cc2[nH]1 | 25 | 65 | 8 | –
13 | Cc1nc2ccccc2[nH]1 | 7 | 317 | – | No reduction observed
14 | Nc1nc2ccccc2[nH]1 | 114 | 1900 | 9 | –
15 | Nc1nc2cc(Cl)c(Cl)cc2[nH]1 | 59 | 218 | 2 | –
16 | CSc1nc2ccccc2[nH]1 | 393 | 45 | – | No reduction observed
17 | CSc1nc2cc(Cl)ccc2[nH]1 | 192 | 5 | 15 | –
18 | COC(=O)Nc1nc2cc(Cl)c(Cl)cc2[nH]1 | 46 | 127 | 14 | –
19 | Sc1nc2ccccc2[nH]1 [2-MERCAPTOBENZIMIDAZOLE] | 133 | 40 | 11 | –
